Laboratory results from patent publication US6936607B2, “2,4,6-Triaminopyrimidines for the treatment of depression and/or anxiety” (H. Lunobeck A/S, priority 2002, dated 2005).
pKi: −log10 of the molar value.

These compounds were tested against T1, human GalR3 receptor (Homo sapiens, UniProt O60755) (assay: Radioligand binding assay at cloned human GalR3 receptor). Conditions: Binding Data; membranes from LM(tk-) cells stably transfected with the human GalR3 receptor.
T1 construct: expressed in transfected cells; host or cells: mouse fibroblast LM(tk-) cells, stably transfected; membranes
T1 sequence (O60755 1-368): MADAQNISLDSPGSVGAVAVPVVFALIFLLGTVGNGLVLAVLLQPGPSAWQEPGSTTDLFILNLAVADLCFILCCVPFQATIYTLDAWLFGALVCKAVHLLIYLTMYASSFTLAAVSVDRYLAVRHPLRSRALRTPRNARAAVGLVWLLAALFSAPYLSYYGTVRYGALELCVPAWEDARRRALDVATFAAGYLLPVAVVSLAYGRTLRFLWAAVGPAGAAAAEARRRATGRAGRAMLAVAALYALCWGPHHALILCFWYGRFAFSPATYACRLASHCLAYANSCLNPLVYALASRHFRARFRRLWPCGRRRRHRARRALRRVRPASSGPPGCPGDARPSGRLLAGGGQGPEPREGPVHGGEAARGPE
Description: LM(tk-) cells were stably transfected with the human GalR3 receptor. cDNAs for the human and rat GalR3 receptors were transfected with a G-418 resistant gene into the mouse fibroblast LM(tk-) cell line by a calcium phosphate transfection method (Cullen, 1987). Membranes were harvested from stably transfected LM(tk-) cells. Adherent cells were washed twice in ice-cold phosphate buffered saline (138 mM NaCl, 8.1 mM Na2HPO4, 2.5 mM KCl, 1.2 mM KH2PO4, 0.9 mM CaCl2, 0.5 mM MgCl2, pH 7.4) and lysed by sonication in ice-cold sonication buffer (20 mM Tris-HCl, 5 mM EDTA, pH 7.7). Large particles and debris were cleared by low speed centrifugation (200×g, 5 min, 4° C.). Membranes were collected from the supernatant fraction by centrifugation (32,000×g, 18 min, 4° C.), washed with ice-cold hypotonic buffer, and collected again by centrifugation (32,000×g, 18 min, 4° C.). The final membrane pellet was resuspended by sonication into a small volume of ice-cold binding buffer (˜1 ml for every 5 plates: 10 mM NaCl, 20 mM HEPES, 0.22 mM KH2PO4, 1.26 mM CaCl2, 0.81 mM MgSO4, pH 7.4). Protein concentration was measured by the Bradford method (Bradford, 1976) using Bio-Rad Reagent, with bovine serum albumin as a standard. Membranes were held on ice for up to one hour and used fresh, or flash frozen and stored in liquid nitrogen. Membranes were prepared similarly from CHO cells. The methods to obtain the cDNA of the receptors, express said receptors in heterologous systems, and carry out assays to determine binding affinity are described as follows. Binding assays were performed according to the following published method: human GALR3 (PCT International Publication No. WO 02/060392).

Row | SMILES | pKi
1 | CCn1ccc2ccc(Nc3cc(N(C)C)nc(N4CCN(c5ccccn5)CC4)n3)cc21 [Example 47, N^4-(1-ETHYL-1H-INDOL-6-YL)-N^6,N^6-DIMETHYL-2-[4-(2-PYRIDINYL)-1-PIPERAZINYL]-4,6-PYRIMIDINEDIAMINE] | 6.45
2 | Cc1ccc(Nc2cc(N(C)C)nc(N3C[C@@H](C)O[C@@H](C)C3)n2)cc1N(C)Cc1ccccc1 [Example 49, N^4-{3-[BENZYL(METHYL)AMINO]-4-METHYLPHENYL}-2-[CIS-2,6-DIMETHYIMORPHOLINYL]-N^6,N^6-DIMETHYL-4,6-PYRIMIDINEDIAMINE] | 6.99
3 | Cc1ccc(Nc2cc(N(C)C)nc(N3CCN(c4cccc(Cl)c4)CC3)n2)cc1 [Example 1, 2-[4-(3-CHLOROPHENYL)-1-PIPERAZINYL]-N^4,N^4-DIMETHYL-N^6-(4-METHYLPHENYL)-4,6-PYRIMIDINEDIAMINE] | 7.19
4 | CN(C)c1cc(Nc2ccc(C3CCCCC3)cc2)nc(N2CCN(c3cccc(Cl)c3)CC2)n1 [Example 9, 2-[4-(3-CHLOROPHENYL)-1-PIPERAZINYL]-N^4-(4-CYCLOHEXYLPHENYL)-N^6,N^6-DIMETHYL-4,6-PYRIMIDINEDIAMINE] | 6.62
5 | CN(C)c1cc(Nc2ccc(SC(F)(F)F)c(Cl)c2)nc(N2CCN(c3cccc(Cl)c3)CC2)n1 [Example 20, 2-[4-(3-CHLOROPHENYL)-1-PIPERAZINYL]-N^4-{3-CHLORO-4-[(TRIFLUOROMETHYL) SULFANYL]PHENYL}-N^6,N^6-DIMETHYL-4,6-PYRIMIDINEDIAMINE] | 6.50
6 | CN(C)c1cc(Nc2ccc3c(c2)CCC3)nc(N2CCN(c3ccccc3Cl)CC2)n1 [Example 4, 2-[4-(2-CHLOROPHENYL)-1-PIPERAZINYL]-N^4-(2,3-DIHYDRO-1H-INDEN-5-YL)-N^6,N^6-DIMETHYL-4,6-PYRIMIDINEDIAMINE] | 7.27
7 | Clc1ccc(Nc2cc(N3CCN(c4ccccn4)CC3)nc(N3CCN(c4ccccn4)CC3)n2)cc1Cl [Example 43, N-(3,4-DICHLOROPHENYL)-2,6-BIS[4-(2-PYRIDINYL)-1-PIPERAZINYL]-4-PYRIMIDINAMINE] | 7.22
8 | CN(C)c1cc(Nc2cccc(OCc3ccccc3)c2)nc(N2CCN(c3ccc(Cl)cc3)CC2)n1 [Example 31, N^4-[3-(BENZYLOXY)PHENYL]-2-[4-(4-CHLOROPHENYL)-1-PIPERAZINYL]-N^6,N^6-DIMETHYL-4,6-PYRIMIDINEDIAMINE] | 7.59
9 | Cc1ccc(Nc2cc(N(C)C)nc(N3CCN(c4cccc(Cl)c4)CC3)n2)cc1C [Example 32, 2-[4-(3-CHLOROPHENYL)-1-PIPERAZINYL]-N^4-(3,4-DIMETHYLPHENYL)-N^6,N^6-DIMETHYL-4,6-PYRIMIDINEDIAMINE] | 7.01
10 | Cc1ccc(Nc2cc(N(C)C)nc(N3CCN(c4ccccc4F)CC3)n2)cc1 [Example 5, 2-[4-(2-FLUOROPHENYL)-1-PIPERAZINYL]-N^4,N^4-DIMETHYL-N^6-(4-METHYLPHENYL)-4,6-PYRIMIDINEDIAMINE] | 6.93
11 | Cc1ccc(Nc2cc(N(C)C)nc(N3CCN(c4c(C(F)(F)F)ccc[n+]4[O-])CC3)n2)cc1 [Example 46, N^4,N^4-DIMETHYL-N^6-(4-METHYLPHENYL)-2-{4-[l-OXIDO-3-(TRIFLUOROMETHYL)-2-PYRIDINYL]-1-PIPERAZINYL}-4,6-PYRIMIDINEDIAMINE] | 6.58
12 | CN(C)c1cc(Nc2ccc(SC(F)(F)F)c(Cl)c2)nc(N2CCN(c3ccccc3F)CC2)n1 [Example 14, N^4-{3-CHLORO-4-[(TRIFLUOROMETHYL)SULFANYL]PHENYL}-2-[4-(2-FLUOROPHENYL)-1-PIPERAZINYL]-N^6,N^6-DIMETHYL-4,6-PYRIMIDINEDIAMINE] | 6.80
13 | CN(C)c1cc(Nc2ccc3c(c2)CCC3)nc(N2CCN(c3ccccc3F)CC2)n1 [Example 12, N^4-(2,3-DIHYDRO-1H-INDEN-5-YL)-2-[4-(2-FLUOROPHENYL)-1-PIPERAZINYL]-N^6,N^6-DIMETHYL-4,6-PYRIMIDINEDIAMINE] | 7.12
14 | CN(C)c1cc(Nc2ccc(Cl)c(Cl)c2)nc(N2CCN(c3ccc(Cl)cc3)CC2)n1 [Example 54, 2-[4-(4-CHLOROPHENYL)-1-PIPERAZINYL]-N-(3,4-DICHLOROPHENYL)-N^6,N^6-DIMETHYL-4,6-PYRIMIDINEDIAMINE] | 6.82
15 | CN(C)c1cc(Nc2ccc(C3CCCCC3)cc2)nc(N2CCN(c3ccccc3F)CC2)n1 [Example 18, N^4-(4-CYCLOHEXYLPHENYL)-2-[4-(2-FLUOROPHENYL)-1-PIPERAZINYL]-N^6,N^6-DIMETHYL-4,6-PYRIMIDINEDIAMINE] | 7.34
16 | CC1CC(C)CN(c2nc(Nc3cccc(OCc4ccccc4)c3)cc(N(C)C)n2)C1 (stereo not drawn) [Example 38, N^4-[3-(BENZYLOXY)PHENYL]-2-(3,5-DIMETHYL-1-PIPERIDINYL)-N^6,N^6-DIMETHYL-4,6-PYRIMIDINEDIAMINE] | 7.82
17 | COc1cccc(Nc2cc(N(C)C)nc(N3CCN(c4ccc(Cl)cc4)CC3)n2)c1 [Example 15, 2-[4-(4-CHLOROPHENYL)-1-PIPERAZINYL]-N^4-(3-METHOXYPHENYL)-N^6,N^6-DIMETHYL-4,6-PYRIMIDINEDIAMINE] | 7.06
18 | Cc1ccc(Nc2cc(N(C)C)nc(N3CCN(c4ccc(Cl)cc4)CC3)n2)cc1C [Example 23, 2-[4-(4-CHLOROPHENYL)-1-PIPERAZINYL]-N^4-(3,4-DIMETHYLPHENYL)-N^6,N^6-DIMETHYL-4,6-PYRIMIDINEDIAMINE] | 6.89
19 | CN(C)c1cc(Nc2ccc3c(c2)CCC3)nc(N2CCN(c3cccc(Cl)c3)CC2)n1 [Example 2, 2-[4-(3-CHLOROPHENYL)-1-PIPERAZINYL]-N^4-(2,3-DIHYDRO-1H-INDEN-5-YL)-N^6,N^6-DIMETHYL-4,6-PYRIMIDINEDIAMINE] | 7.47
20 | Cc1ccc(Nc2cc(N(C)C)nc(N3CCN(c4ccccc4F)CC3)n2)cc1C [Example 19, N^4-(3,4-DIMETHYLPHENYL)-2-[4-(2-FLUOROPHENYL)-1-PIPERAZINYL]-N^6,N^6-DIMETHYL-4,6-PYRIMIDINEDIAMINE] | 6.93
21 | CN(C)c1cc(Nc2ccc(SC(F)(F)F)c(Cl)c2)nc(N2CCN(c3ccc(Cl)cc3)CC2)n1 [Example 30, 2-[4-(4-CHLOROPHENYL)-1-PIPERAZINYL]-N^4-{3-CHLORO-4-[TRIFLUOROMETHYL) SULFANYL]PHENYL}-N^6,N^6-DIMETHYL-4,6-PYRIMIDINEDIAMINE] | 6.86
22 | CCNc1cc(Nc2cc(N(C)C)nc(N3CCN(Cc4ccccc4)CC3)n2)ccc1C [Example 40, 2-(4-BENZYL-1-PIPERAZINYL)-N^4-[3-(ETHYLAMINO)-4-METHYLPHENYL]-N^6,N^6-DIMETHYL-4,6-PYRIMIDINEDIAMINE] | 6.86
23 | C[C@@H]1CN(c2nc(Nc3cccc(OCc4ccccc4)c3)cc(N(C)C)n2)C[C@H](C)O1 [Example 34, N^4-[3-(BENZYLOXY)PHENYL]-2-[CIS-2,6-DIMETHYLMORPHOLINYL]-N^6,N^6-DIMETHYL-4,6-PYRIMIDINEDIAMINE] | 7.49
24 | CN(C)c1cccc(Nc2cc(N(C)C)nc(N3CCN(c4ccccn4)CC3)n2)c1 [Example 28, N^4-[3-(DIMETHYLAMINO)PHENYL]-N^6,N^6-DIMETHYL-2-[4-(2-PYRIDINYL)-1-PIPERAZINYL]-4,6-PYRIMIDINEDIAMINE] | 6.38
